Laboratory results: patent US4317768A, “Dihydropyridine derivatives as stabilizers for vinyl chloride polymers” (priority 1977, dated 1982)
Where “and” joins values, the source holds several entries; their conditions need not be identical. Equal values may be shown once. Each block holds one molecule with its values, some of them ahead of it.

What was measured:
[1] = Static thermostability (GARDNER method), rigid PVC sheets, 210° C., 0.3 part stabilizer
Protocol: (§1) This study was carried out according to the GARDNER method, described in British Pat. No. 1,489,685.
(§2) The reference substance was 2-phenyl-indole, a well-known and widely used stabilizer.
(§3) The stabilizer (dihydropyridine or 2-phenyl-indole) and the other usual ingredients were mixed with powdered vinyl resins and the mixtures were calendered at a temperature of 160° C. to give rigid sheets.
(§4) The sheets were then heated in a thermostated oven (185° C. or 210° C.) for different intervals of time until incipient carbonization.
(§5) The coloration of the samples was compared to a standard scale of coloration, known as the GARDNER scale and was expressed in terms of the reference figures of the GARDNER scale.
(§6) This study was carried out with the following resin:
(§7) Polyvinyl chloride resin
(§8) SL 2016 is a solution of zinc-2-ethyl-hexanoate in a mixture of hydrocarbons boiling between 158° C. and 184° C.
The first trial was carried out at 210° C. with a resin containing 0.3 part by weight of stabilizer, the sheets being removed from the oven every three minutes over a period of 21 minutes.

[2] = Static thermostability (GARDNER method), rigid PVC sheets, 185° C., 0.3 part stabilizer
Protocol: as §1, §2, §3, §4, §5, §6, §7, §8
A second trial was performed at a temperature of 185° C., with a resin containing 0.3 part of stabilizer, the samples being removed from the oven every 6 minutes over a period of 24 minutes, then every 3 minutes until the 42nd minute (or until carbonization).

[3] = Static thermostability (GARDNER method), rigid PVC sheets, 185° C., equimolecular quantities; conditions: 1.55×10^-3 mol
Protocol: as §1, §2, §3, §4, §5, §6, §7, §8
Finally, a trail was performed at 185° C., with resins containing equimolecular quantities of the dihydropyridines or of 2-phenyl-indole, namely 1.55×10^-3 mol. In this case too, the samples were removed from the oven every 6 minutes over a period of 24 minutes and then every 3 minutes until the 42nd minute (or until carbonization).

[4] = Colour of the resin after each passage in a blower-extruder
Protocol: (2) Examination of the colour of the resin after each passage (3 in all) in a blower-extruder, the mould being a 250 ml cylindrical flask.
Four resins where tested, the first containing 0.2% of 2-phenyl-indole and the others 0.2%, 0.03% and 0.015% of compound 1 respectively.

[5] = Comparison with 2-phenyl-indole, vinyl chloride-vinyl acetate co-polymer, 185° C.; conditions: 0.3 part
Protocol: (c) Comparison with 2-phenyl-indole
A comparative test was made using the following compound:
The sheets were heated in a ventilated oven at 185° C. and the following results were obtained: […]

[6] = Comparison with 2-phenyl-indole, vinyl chloride-vinylidene chloride co-polymer, 210° C.; conditions: 0.3 part
Protocol: A second test was made using the following compound:
The sheets were heated in a ventilated oven at 210° C. and the following results were obtained: […]

[7] = Photostabilizing power, PVC plates exposed to the sun, GARDNER scale
Protocol: (§9) The photostabilizing power of the compounds of the invention was studied by exposing to the sun polyvinyl chloride plates which had been stabilized either by a dihydropyridine of the invention or by 2-phenyl-indole, or again by 2-(3'-methoxy-4'-hydroxy)-indole. This last product is an extremely valuable thermostabilizer for thermoplastic resins and is described in British Pat. No. 1,489,685.
(§10) The resin given hereunder was prepared by mixing on cylinders at 160° C.:
(§11) The plates of stabilized polyvinyl chloride, together with a plate which had not been stabilized, were stood in the sun under the same conditions and at the same time. Their colour was measured after 6 hours and 12 hours of exposure.
(§12) The coloration of the plates was determined according to two methods:
On the plates themselves, following the GARDNER scale, as in the section on thermostability,
The sign + means that the coloration lies between the lower unit and the upper half-unit. Thus, 3+ means that the coloration lies between 3 and 3.5. Similarly, the sign - means that the coloration lies between the lower half-unit and the upper unit.

[8] = Photostabilizing power, sheets exposed to the sun, co-polymer (a)
Protocol: (§13) The sheets were exposed to the sun and their colorations were also determined according to the GARDNER method.

[9] = Photostabilizing power, sheets exposed to the sun, rigid co-polymer (b)
Protocol: as §13

[10] = Comparison with stabilizer G1, rigid co-polymer, 0.5 part, 185° C.
From the text: (b) Comparison with stabilizer G1
Stabilizer G1 is a mixture of 1,4-butanediol-β-aminocrotonate and of β-aminocrotonate of alcohols containing from 16 to 18 carbon atoms.

[11] = Comparison with stabilizer G1, rigid co-polymer (12.5 to 13.5% of acetate), 0.5 part, 185° C.
From the text: Another comparison was made with the following rigid co-polymer: […]

[12] = Comparison with stabilizer G1, 0.1 part, 185° C.
Protocol: A test was also carried out with the following compound:
Another test was made with the same resin but containing 0.1 part of stabilizer.

[13] = Photostabilizing power, tetrahydrofuran solution of plates exposed to the sun, French Pharmacopeia
Protocol: as §9, §10, §11, §12
On a solution of these plates in tetrahydrofuran, the coloration of th solution being measured according to the French Pharmacopeia (IXth edition, II-338).

[14] = Polarographic study of the oxidation potential; type: physicochemical; conditions: acetonitrile, 0.1 M lithium perchlorate, vitrous carbon electrode, calomel reference
From the text: By a polarographic study of their oxidation potential, compared to well-known antioxidants such as 2,6-diterbutyl-4-methyl-phenol, 2-terbutyl-4-methoxy-phenol, 4-methoxy-phenol and hydroquinone.
Reference electrode: Calomel electrode containing a saturated solution of anhydrous lithium perchlorate as bridge liquid.
Working electrode: Vitrous carbon rotating electrode (2,500 r.p.m.)
Counter-electrode: Platinum electrode
Acetonitrile containing less than 0.1% of water and presenting no polarographic waves between -2.5 V and +2.5 V.
Anhydrous lithium perchlorate containing less than 1% of water.
A 0.1 M solution of lithium perchlorate in acetonitrile, treated and preserved on a 4 A molecular sieve.
Amplitude of exploration: 0 to 2 V
Speed of exploration: 10 mV/second
Sensitivity: 1.25 μA to 50 μA
Mean concentration: about 0.3×10^-3 mol/liter
Between each measurement, the vitrous carbon electrode and the platinum electrode were carefully cleaned with Joseph paper.

SMILES: c1ccc(-c2cc3ccccc3[nH]2)cc1 [2-Phenyl-indole, 2-phenyl-indole, reference compound]
coloration, GARDNER scale ([1]; 0 min): 1 | coloration, GARDNER scale ([2]; 0 min): 1 | coloration, GARDNER scale ([2]; 6 min): 1 | coloration, GARDNER scale ([2]; 12 min): 3 and 4 and 5 | coloration, GARDNER scale ([2]; 24 min): 13 and 11 | coloration, GARDNER scale ([2]; 27 min): 14 and 13 | coloration, GARDNER scale ([2]; 30 min): 15 and 14 | coloration, GARDNER scale ([2]; 33 min): 15 and 14 | coloration, GARDNER scale ([2]; 36 min): 16 and 14 and 15 | coloration, GARDNER scale ([2]; 39 min): 16 and 15 | coloration, GARDNER scale ([3]; 0 min): 1 | coloration, GARDNER scale ([3]; 6 min): 2 | coloration, GARDNER scale ([3]; 12 min): 3 | coloration, GARDNER scale ([3]; 18 min): 10 | coloration, GARDNER scale ([3]; 24 min): 13 | coloration, GARDNER scale ([3]; 27 min): 14 | coloration, GARDNER scale ([3]; 30 min): 14 | coloration, GARDNER scale ([3]; 33 min): 14 | coloration, GARDNER scale ([3]; 36 min): 16 | coloration, GARDNER scale ([3]; 39 min): 16 | coloration, GARDNER scale ([3]; 42 min): Burnt | colour of the flask ([4]; after the second passage): blue color tending towards green | colour of the flask ([4]; after the third passage): greenish-blue | coloration, GARDNER scale ([5]; 0 min): 1 | coloration, GARDNER scale ([5]; 2 min): 1 | coloration, GARDNER scale ([5]; 4 min): 2 | coloration, GARDNER scale ([5]; 6 min): 3 | coloration, GARDNER scale ([5]; 8 min): 8 | coloration, GARDNER scale ([5]; 10 min): 12 | coloration, GARDNER scale ([5]; 12 min): 14 | coloration, GARDNER scale ([5]; 14 min): 17 | coloration, GARDNER scale ([6]; 0 min): 2 and 1 | coloration, GARDNER scale ([6]; 3 min): 2 and 1 | coloration, GARDNER scale ([6]; 6 min): 5 and 4 | coloration, GARDNER scale ([6]; 9 min): 8.5 and 10 | coloration, GARDNER scale ([6]; 12 min): 14 and 15 | coloration, GARDNER scale ([6]; 15 min): 16 | Coloration of the plates GARDNER ([7]; exposure to sun 6h): 3 | Colour in GARDNER degrees ([8]; After 24 hours): 6 GARDNER degrees and 8 GARDNER degrees | Colour in GARDNER degrees ([8]; Time 0): 1 GARDNER degrees | Colour in GARDNER degrees ([9]; After 24 hours): 17 GARDNER degrees and 13 GARDNER degrees | Colour in GARDNER degrees ([9]; Time 0): 1.5 GARDNER degrees and 1 GARDNER degrees

thermostabilizing power compared to 2-phenyl-indole, in words ([1]; 210° C.): greatly superior to 2-phenyl-indole | Oxidation potential [14]: 0.80 ± 0.01 volts
SMILES: C#CCOC(=O)C1=C(C)NC(C)=C(C(=O)OCC#C)C1 [Compound 2, 2,6-Dimethyl-3,5-dicarbopropargyloxy-1,4-dihydropyridine]
coloration, GARDNER scale ([1]; 0 min): 1 | coloration of the resins, in words ([1]; 0 to 3 minutes): considerably less | coloration, GARDNER scale ([1]; 3 min): 1 | coloration, GARDNER scale ([1]; 6 min): 1 | coloration, GARDNER scale ([1]; 9 min): 4 | coloration, GARDNER scale ([1]; 12 min): 8 | coloration, GARDNER scale ([1]; 15 min): 12 | coloration, GARDNER scale ([1]; 18 min): Burnt | coloration, GARDNER scale ([2]; 0 min): 1 | coloration, GARDNER scale ([2]; 6 min): 1 | coloration, GARDNER scale ([2]; 12 min): 2 | coloration, GARDNER scale ([2]; 18 min): 4 | coloration, GARDNER scale ([2]; 24 min): 6 | coloration, GARDNER scale ([2]; 27 min): 7 | coloration, GARDNER scale ([2]; 30 min): 8.5 | coloration, GARDNER scale ([2]; 33 min): 9 | coloration, GARDNER scale ([2]; 36 min): 10.5 | coloration, GARDNER scale ([2]; 39 min): 12 | coloration, GARDNER scale ([2]; 42 min): 18 | coloration, GARDNER scale ([10]; 0 min): 1 | coloration, GARDNER scale ([10]; 2 min): 1 | coloration, GARDNER scale ([10]; 4 min): 1.5 | coloration, GARDNER scale ([10]; 6 min): 5 | coloration, GARDNER scale ([10]; 8 min): 10 | coloration, GARDNER scale ([10]; 10 min): 12 | coloration, GARDNER scale ([10]; 12 min): 16 | coloration, GARDNER scale ([11]; 0 min): 1 | coloration, GARDNER scale ([11]; 2 min): 1 | coloration, GARDNER scale ([11]; 4 min): 2 | coloration, GARDNER scale ([11]; 6 min): 3 | coloration, GARDNER scale ([11]; 10 min): 8.5 | coloration, GARDNER scale ([11]; 12 min): 13 | coloration, GARDNER scale ([11]; 14 min): 17 | coloration, GARDNER scale ([11]; column without printed time, between 6 and 10 min): 4 | coloration, GARDNER scale ([12]; 0 min): 1 | coloration, GARDNER scale ([12]; 2 min): 1 | coloration, GARDNER scale ([12]; 4 min): 2 | coloration, GARDNER scale ([12]; 6 min): 4 | coloration, GARDNER scale ([12]; 8 min): 8 | coloration, GARDNER scale ([12]; 10 min): 10 | coloration, GARDNER scale ([12]; 12 min): 12 | coloration, GARDNER scale ([12]; 14 min): 13 | Coloration of the plates GARDNER ([7]; exposure to sun 0): 1 | Coloration of the plates GARDNER ([7]; exposure to sun 6h): 1 | Coloration of the plates GARDNER ([7]; exposure to sun 12h): 1.5 | Coloration of the plates FRENCH PHARMACOPEIA ([13]; exposure to sun 0): JV6 | Coloration of the plates FRENCH PHARMACOPEIA ([13]; exposure to sun 6h): JV6 | Coloration of the plates FRENCH PHARMACOPEIA ([13]; exposure to sun 12h): JV5
